The target of the test is T1, PTPase from thermus thermophilus HB27 (Thermus thermophilus, UniProt Q72JF6).
T1 construct: gene TT_C0816; recombinant, cloned into pET-28a(+), E. coli BL21(DE3), purified; LMW PTPase EC 3.1.3.48; P-loop CLGNICRS, residues Cys11, Cys16, Arg17, Asp123 (Tt1001)
T1 sequence (Q72JF6 1-161): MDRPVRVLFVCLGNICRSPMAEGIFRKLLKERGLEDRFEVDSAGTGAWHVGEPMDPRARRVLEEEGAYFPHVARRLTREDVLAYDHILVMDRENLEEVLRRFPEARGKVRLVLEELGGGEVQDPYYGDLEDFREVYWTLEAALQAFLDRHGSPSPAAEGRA
The test can be described thus: residual pNPP phosphatase activity, absorbance […] nm. Format: biochemical.

Molecules are shown by their SMILES.

What is called IC50 is the point on the concentration scale where inhibition reaches its midpoint. A high value points to weaker potency. The compound `CCCCCCCCCCCCOS(=O)(=O)O` [SDS] registered a half-inhibitory concentration (IC50) of 11.3 µM.

Source of the values: PMC7035334, “Effects of SDS on the activity and conformation of protein tyrosine phosphatase from thermus thermophilus HB27” (Scientific Reports, 2020).
